Measured values taken from US5340806A, “Composition containing organogermanium compound and immunity adjusting agent comprising the composition” (Sanwa Kagaku Kenkyusho Co., Ltd., priority 1984, dated 1994).

Key:
[1] = system: positive Arthus reaction in guinea pigs; test: Positive Arthus reaction in guinea pig; assay type: in vivo, Hartley male guinea pigs; details: 30 days, FIG. 11
Protocol: To 2% egg albumin solution, the same amount of Freund's complete adjuvant was added to prepare an emulsion. The emulsion was injected in 4 times by one time/week to Hartley male guinea pigs at a heel, under the skin and in the femoralis muscle, for sensitization. After 10 days from the final sensitization, 0.1 ml of 1% egg albumin solution was injected under the skin of the back to measure the area of resulting edema. The organogermanium compound was orally dosed for 30 days from the first sensitization in an amount of 0.1, 1.0 and 10 mg/kg/day.

chronic B hepatitis = test: Long term dosing in chronic B hepatitis (In Vivo Utilization Example 4); parameters: species or system human patients; details: for Liver tissue improvement: Ballooning of cell: 4 patients; for Liver tissue improvement: Bridging necrosis: 9 patients; for Liver tissue improvement: Fatty degeneration: 11 patients; for Liver tissue improvement: Moderation of lobule: 15 patients; for Glisson's capsule improvement: Piecemeal necrosis: 17 patients; for Glisson's capsule improvement: Fibrosis: 23 patients; for Glisson's capsule improvement: Round cell infiltration / Liver tissue improvement: Cobwebby necrosis / Liver tissue improvement: Degenerative necrosis in cell / Liver tissue improvement: Mobilization image of Kupfer cell: 24 patients
Protocol: A capsule containing the organogermanium compound was dosed to patients infected with chronic B hepatitis over a long period of time at a rate of 30 mg/day/body as the effective compound to check safety and effectiveness.
(a) Number of patients for analysis: 34 persons.
(b) Mean dosing period of time: 55 weeks.
(c) Number of patients who continuously dose over 48 weeks: 26 persons.

[2] = system: chronic non A non B hepatitis; test: Long term dosing in chronic non A non B hepatitis (In Vivo Utilization Example 6); parameters: species or system human patients; details: for Liver tissue improvement: Ballooning of cell: 4 patients; for Liver tissue improvement: Moderation of lobule: 8 patients; for Liver tissue improvement: Fatty degeneration: 9 patients; for Glisson's capsule improvement: Piecemeal necrosis: 13 patients; for Liver tissue improvement: Mobilization image of Kupfer cell: 16 patients; for Glisson's capsule improvement: Fibrosis / Glisson's capsule improvement: Round cell infiltration / Liver tissue improvement: Cobwebby necrosis / Liver tissue improvement: Degenerative necrosis in cell: 17 patients
Protocol: A capsule containing the organogermanium compound was dosed to patients infected with chronic non A non B hepatitis over a long period of time to check safety and effectiveness of the organogermanium compound.
(a) Number of patients for analyzation: 68 persons.
Group A: 39 persons (dose; 30 mg/day/body), and
Group B: 29 persons (dose; 60 mg/day/body).
(b) Mean dosing period of time
(c) Number of patients who continuously dose over 48 weeks

[3] = 30 mg/day, patients of total 35
[4] = 60 mg/day, patients of total 26

3-oxygermylpropionic acid [Compound No. 1]
inhibition of phlegmasia (edema area) ([1]; 0.1 mg/kg/day oral): a recognizable inhibition of the phlegmasia
inhibition of phlegmasia (edema area) ([1]; 1 mg/kg/day oral): a recognizable inhibition of the phlegmasia
ratio of improvement in functions of liver (at least slight), judgement of doctor in charge (chronic B hepatitis; 30 mg/day/body, mean 55 weeks): 63%
ratio of improvement in functions of liver (at least slight), secondary judgement of committee (chronic B hepatitis; 30 mg/day/body, mean 55 weeks): 59%
patients changed to SC (seroconversion) (chronic B hepatitis; among 23 HBe antigen positive): 3 patients
patients changed to SN (seronegative) (chronic B hepatitis; among 23 HBe antigen positive): 3 patients
ratio of disappearance of HBe antigen (chronic B hepatitis; among 23 HBe antigen positive): 26%
Liver tissue improvement: Evaluation (chronic B hepatitis; ≥middle, 3/24): 12.5%
Liver tissue improvement: Ballooning of cell (chronic B hepatitis; ≥middle): 0%
Liver tissue improvement: Bridging necrosis (chronic B hepatitis; ≥middle): 22.2%
Liver tissue improvement: Fatty degeneration (chronic B hepatitis; ≥middle): 0%
Liver tissue improvement: Moderation of lobule (chronic B hepatitis; ≥middle): 0%
Glisson's capsule improvement: Piecemeal necrosis (chronic B hepatitis; ≥middle): 17.6%
Glisson's capsule improvement: Fibrosis (chronic B hepatitis; ≥middle): 8.7%
Glisson's capsule improvement: Round cell infiltration (chronic B hepatitis; ≥middle): 0%
Liver tissue improvement: Cobwebby necrosis (chronic B hepatitis; ≥middle): 16.7%
Liver tissue improvement: Degenerative necrosis in cell (chronic B hepatitis; ≥middle): 16.7%
Liver tissue improvement: Mobilization image of Kupfer cell (chronic B hepatitis; ≥middle): 16.7%
Liver tissue improvement: Ballooning of cell (chronic B hepatitis; ≥slight): 50.0%
Liver tissue improvement: Bridging necrosis (chronic B hepatitis; ≥slight): 33.3%
Liver tissue improvement: Evaluation (chronic B hepatitis; ≥slight, 10/24): 41.7%
Liver tissue improvement: Fatty degeneration (chronic B hepatitis; ≥slight): 9.1%
Liver tissue improvement: Moderation of lobule (chronic B hepatitis; ≥slight): 6.7%
Glisson's capsule improvement: Piecemeal necrosis (chronic B hepatitis; ≥slight): 29.4%
Glisson's capsule improvement: Fibrosis (chronic B hepatitis; ≥slight): 17.4%
Glisson's capsule improvement: Round cell infiltration (chronic B hepatitis; ≥slight): 12.5%
Liver tissue improvement: Cobwebby necrosis (chronic B hepatitis; ≥slight): 37.5%
Liver tissue improvement: Degenerative necrosis in cell (chronic B hepatitis; ≥slight): 37.5%
Liver tissue improvement: Mobilization image of Kupfer cell (chronic B hepatitis; ≥slight): 41.7%
Ratio of improvement: Middle or more ([2]; 30 mg/day): 11.4%
Ratio of improvement: Slight or more ([2]; 30 mg/day): 26.9%
Getting worse (functions of liver) [2, 3]: 3
Middle improved (functions of liver) [2, 3]: 2
No change (functions of liver) [2, 3]: 20
Remarkably improved (functions of liver) [2, 3]: 2
Ratio of improvement: Middle or more ([2]; 60 mg/day): 34.3%
Ratio of improvement: Slight or more ([2]; 60 mg/day): 57.7%
Getting worse (functions of liver) [2, 4]: 0
Middle improved (functions of liver) [2, 4]: 4
No change (functions of liver) [2, 4]: 11
Remarkably improved (functions of liver) [2, 4]: 3
Liver tissue improvement: Evaluation ([2]; ≥middle, 1/17): 5.9%
Liver tissue improvement: Bridging necrosis ([2]; ≥middle, 3 patients): 0%
Liver tissue improvement: Ballooning of cell ([2]; ≥middle): 0%
Liver tissue improvement: Moderation of lobule ([2]; ≥middle): 0%
Liver tissue improvement: Fatty degeneration ([2]; ≥middle): 0%
Glisson's capsule improvement: Piecemeal necrosis ([2]; ≥middle): 0%
Liver tissue improvement: Mobilization image of Kupfer cell ([2]; ≥middle): 6.3%
Glisson's capsule improvement: Fibrosis ([2]; ≥middle): 0%
Glisson's capsule improvement: Round cell infiltration ([2]; ≥middle): 0%
Liver tissue improvement: Cobwebby necrosis ([2]; ≥middle): 5.9%
Liver tissue improvement: Degenerative necrosis in cell ([2]; ≥middle): 5.9%
Liver tissue improvement: Ballooning of cell ([2]; ≥slight): 0. %
Liver tissue improvement: Moderation of lobule ([2]; ≥slight): 12.5%
Liver tissue improvement: Fatty degeneration ([2]; ≥slight): 22.2%
Liver tissue improvement: Evaluation ([2]; ≥slight, 10/17): 58.8%
Glisson's capsule improvement: Piecemeal necrosis ([2]; ≥slight): 38.5%
Liver tissue improvement: Mobilization image of Kupfer cell ([2]; ≥slight): 50.0%
Glisson's capsule improvement: Fibrosis ([2]; ≥slight): 5.9%
Glisson's capsule improvement: Round cell infiltration ([2]; ≥slight): 17.6%
Liver tissue improvement: Cobwebby necrosis ([2]; ≥slight): 52.9%
Liver tissue improvement: Degenerative necrosis in cell ([2]; ≥slight): 52.9%
modification or decomposition in contact with water (control composition (water)): a modification or decomposition occurs
lapsed time at which disturbance in the absorption spectrum was first observed (control: water in lieu of serum albumin, 25° C): 24 h
disturbance in the absorption spectrum (control: water, after 60 hours): the disturbance was further increased
